The values below come from publication PMC6368574, “Probing the Inhibition of Microtubule Affinity Regulating Kinase 4 by N-Substituted Acridones” (Scientific Reports, 2019).

In one experiment the target is T1, recombinant MARK4 (Homo sapiens, UniProt Q96L34).
T1 construct: made in house; host or cells: bacterial cells (Luria-Bertani broth, IPTG induction)
T1 sequence (Q96L34 1-752): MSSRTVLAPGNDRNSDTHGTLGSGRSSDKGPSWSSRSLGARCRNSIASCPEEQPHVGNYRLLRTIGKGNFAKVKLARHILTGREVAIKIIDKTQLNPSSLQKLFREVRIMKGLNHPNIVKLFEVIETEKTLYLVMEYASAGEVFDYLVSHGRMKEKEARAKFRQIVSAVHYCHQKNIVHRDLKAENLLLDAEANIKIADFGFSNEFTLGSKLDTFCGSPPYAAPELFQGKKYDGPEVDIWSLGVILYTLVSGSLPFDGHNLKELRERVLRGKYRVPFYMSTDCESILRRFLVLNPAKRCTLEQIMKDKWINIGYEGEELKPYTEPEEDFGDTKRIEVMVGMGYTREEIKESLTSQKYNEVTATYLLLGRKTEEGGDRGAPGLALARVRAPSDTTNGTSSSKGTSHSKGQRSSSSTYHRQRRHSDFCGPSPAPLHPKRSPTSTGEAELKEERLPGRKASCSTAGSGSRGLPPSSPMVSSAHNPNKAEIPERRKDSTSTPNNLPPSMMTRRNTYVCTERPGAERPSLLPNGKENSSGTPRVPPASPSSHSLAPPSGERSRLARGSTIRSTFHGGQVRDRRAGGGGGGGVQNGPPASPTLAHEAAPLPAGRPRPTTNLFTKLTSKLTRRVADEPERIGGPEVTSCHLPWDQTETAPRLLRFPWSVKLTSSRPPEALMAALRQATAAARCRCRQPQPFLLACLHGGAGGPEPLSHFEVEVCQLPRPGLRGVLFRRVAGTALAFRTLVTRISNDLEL
As to the kind of experiment: Isothermal titration calorimetry. The experiment is classed as binding. The conditions noted are these: for Kd: read-out: Ka (converted); for ITC binding in words: at lower stoichiometry, at high concentration they precipitate with MARK4. The source says:
In order to measure the actual binding affinity and stoichiometry of selected compounds with the recombinant MARK4, isothermal titration calorimetry (ITC) has been carried out. Negative heat impulses in the upper panel of each isotherm indicate exothermic nature of binding. The amount of heat produced as a result of each injection helps to deliver the molar ratio of studied compound to that of MARK4. Thermodynamic parameters associated with binding of MARK4-compounds (Ka, binding constant and ΔH, enthalpy change) are shown in Table 1.
Figure 5 ITC measurement showing the titration of selected acridone derivatives with recombinant MARK4. (Top) Raw data plot of heat produced against time for the titration of 1000–1500 µM (A) compound 7b, (B) compound 7d, (C) compound 7f, into 20–25 µM MARK4. (Bottom) Corresponding binding isotherm obtained after integration of peak area and normalization to yield a plot of molar enthalpy change against each compound-MARK4 ratio.
ITC experiments were performed on a VP-ITC microcalorimeter (MicroCal, Inc. GE, MicroCal, USA) by following our previously published protocols[41],[47]. For sample preparation, recombinant MARK4 was extensively dialyzed in 20 mM Tris buffer, pH 8.5 and the working solutions of acridone derivatives were prepared in last dialyzing buffer. The titration data so obtained was analyzed with the help of MicroCal Origin 7.0 software provided with the instrument. The thermodynamic parameters of binding such as association constant (Ka), stoichiometry of binding (n), and enthalpy change (ΔH) were determined by fitting the binding isotherm into the ‘one-set of sites’ binding model.
A general note: ITC needs no label: the signal is the heat of the interaction.

The next experiment concerns HEK293 cells. As to the kind of experiment: MTT cell viability assay, HEK293. The format is cell-based. The conditions noted are these: Homo sapiens, Table S2. On the procedure: Initially, all synthesized acridone derivatives were evaluated for their cytotoxicity potential on MCF-7, HepG2 and HEK293 cell lines by MTT assay. These synthesized acridone derivatives were screened in the concentration range of 0–200 µM, for 24 and 48 h. […] It was also interesting that in the studied […] concentration range these compounds don’t show considerable cytotoxicity towards HEK293 cell lines. […] Thus, compounds 5, 7b, 7d, 7f and 7h were taken for further cell based studies such as apoptosis and reactive oxygen species (ROS) production.
To study the effect of synthesized acridone derivatives on cell viability and proliferation, a standard MTT method was carried out. Cells were plated (8000–9000/well) in a 96-well plate and incubated overnight. On the next day, cells were treated with increasing concentrations (0.1–80 μM) of synthesized acridone derivatives in a final volume of 200 µl for 48 h at 37 °C in a humidified chamber. At the end of treatment time point, 20 µl of MTT solution (from 5 mg/ml stock solution in phosphate buffer saline, pH 7.4) was added to each well and incubated further for 4–5 h at 37 °C in the CO2 incubator. After stipulated time the supernatant was aspirated and the colored formazan crystal produced as a result of MTT reduction was dissolved in 100 µl of DMSO. The absorbance (A) of colored product was then measured at 570 nm on a multiplate ELISA reader (BioRad). The percentage of viable cells was calculated and used to estimate the IC50 (50% inhibitory concentration) values for each acridone derivative. For cell proliferation studies paclitaxel has been taken as positive control.
On the technique in general: Tetrazolium dyes change colour on reduction, which living cells bring about.

Experiment [1] concerns panel of kinases of CAMK family. As to the kind of experiment: Single dose kinase inhibition profiling (ADP-Glo). The format is biochemical. The conditions noted are these: single dose of 10 µM. The source says:
The selectivity of kinase inhibitors is commonly evaluating them against a panel of closely related kinases based on the hypothesis that off-target interfaces are more likely to be associated with same/different families of kinases with similar amino acid sequence. So, we evaluated the fraction of kinase targets that are within the same kinase family (CAMK family). […] These kinase selectivity results signify the use of these compounds as potential and selective inhibitors towards MARK4.
Figure 7 Kinase selectivity and tau-phosphorylation assay. Kinase selectivity results of (A) compound 7b, (B) compound 7d, (C) compound 7f. The selected panel of kinases was incubated with 10 µM dose of selected compounds and analyzed for percent activity values. The percent kinase activity was calculated in the compound-containing reactions and plotted in terms of percent kinase activity inhibition. (D) Representative flow cytometry histogram of SH-SY5Y cell fractions stained with phosphorylated anti-tau antibodies, each histogram represents the phosphorylation status of tau under different treatments as mentioned in inset.
In vitro profiling of the twenty five members of CAMK family (CAMK-1 and CAMK-2) of kinases was performed with the help of kinase screening kit by following the manufacturer’s protocols (Promega, Madison, USA). Briefly, add desired concentration of each compound (10 µM) to corresponding well of 384-well assay plate. Consecutively, 2 µl of kinase working stock solution was added to each wells of assay plate. Gently mix the reaction mixture on a plate shaker for 2 minutes, centrifuge the assay plate to bring mixture of reagents to the bottom of the wells. Incubate the plate at room temperature (25 °C) for 10 minutes. […] After the completion of reaction, measure the luminescence using an integration time of 0.5 seconds per well. Using net luminescence of the no-compound control (negative control) reactions to represent 100% kinase activity, the percent kinase activity was calculated in the compound-containing reactions and plotted in terms of percent kinase activity inhibition.

Consider `Cc1ccc(NC(=O)Cn2c3ccccc3c(=O)c3cc(C)ccc32)cc1` [Compound 7f, 2-(2-Methyl-9-oxoacridin-10(9H)-yl)-N-(p-tolyl)acetamide], for which, at recombinant MARK4 (from ITC, single-site fitting), the ΔH is −3.01 × 10^4 ± 590.10 cal/mol and the Kd was 7.41 µM. Moreover, in the experiment on HEK293 cells, the half-inhibitory concentration (IC50) was greater than 200 µM. Besides, in experiment [1], the within-family kinase selectivity result is given as “more strongly inhibits MARK4 as compared to other kinases of same family”.
For the compound `COc1ccccc1NC(=O)Cn1c2ccccc2c(=O)c2cc(C)ccc21` [Compound 7h, N-(2-methoxyphenyl)-2-(2-methyl-9-oxoacridin-10(9H)-yl)acetamide], the “ITC binding in words” value at recombinant MARK4 is given as “do not show significant binding”. Moreover, the half-maximal inhibitory concentration (IC50) in the experiment on HEK293 cells was greater than 200 µM.
As for `COC(=O)Cn1c2ccccc2c(=O)c2cc(C)ccc21` [Compound 5, Methyl 2-(2-methyl-9-oxoacridin-10(9H)-yl)acetate], the “ITC binding in words” value on recombinant MARK4 is listed as “do not show significant binding”. Moreover, the IC50 in the experiment on HEK293 cells is greater than 200 µM.
For `Cc1ccc2c(c1)c(=O)c1ccccc1n2CC(=O)NCc1ccccc1` [Compound 7b, N-benzyl-2-(2-methyl-9-oxoacridin-10(9H)-yl)acetamide], the Kd on recombinant MARK4 (from ITC, single-site fitting) was 15.6 µM. This compound also displayed a half-inhibitory concentration (IC50) in the experiment with HEK293 cells greater than 200 µM. Also, in experiment [1], the within-family kinase selectivity entry is on record as “more strongly inhibits MARK4 as compared to other kinases of same family”.
In the same order, the values of `COc1ccc(CNC(=O)Cn2c3ccccc3c(=O)c3cc(C)ccc32)cc1` [Compound 7d, N-(4-methoxybenzyl)-2-(2-methyl-9-oxoacridin-10(9H)-yl)acetamide] are 15.8 µM, greater than 200 µM and “more strongly inhibits MARK4 as compared to other kinases of same family”.

As a reminder, the IC50 is the midpoint of a concentration-inhibition curve.
